PubChem BioAssay (NCI)
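Briefly, cells in 96-well plates were exposed to five compound concentrations for 48 h, and endpoints were estimated by linear interpolation. GI50 marks 50% less growth. At the TGI there is no net growth.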

Assays:
Assay in all cases: DTP human tumour cell line panel, 48 h
HL-60(TB) leukemia = system: HL-60(TB) leukemia
HCC-2998 colon = system: HCC-2998 colon
CCRF-CEM leukemia = system: CCRF-CEM leukemia
OVCAR-5 ovarian = system: OVCAR-5 ovarian
SF-295 CNS = system: SF-295 CNS
HT29 colon = system: HT29 colon
UACC-62 melanoma = system: UACC-62 melanoma
HOP-92 NSCLC = system: HOP-92 NSCLC
HOP-18 NSCLC = system: HOP-18 NSCLC
DLD-1 colon = system: DLD-1 colon
DMS 273 small cell lung = system: DMS 273 small cell lung
KM20L2 colon = system: KM20L2 colon
SNB-78 CNS = system: SNB-78 CNS

| Structure (SMILES) | TGI (HL-60(TB) leukemia) | TGI (HCC-2998 colon) | TGI (CCRF-CEM leukemia) | TGI (OVCAR-5 ovarian) | TGI (SF-295 CNS) | TGI (HT29 colon) | TGI (UACC-62 melanoma) | TGI (HOP-92 NSCLC) | TGI (HOP-18 NSCLC) | TGI (DLD-1 colon) | TGI (DMS 273 small cell lung) | TGI (KM20L2 colon) | TGI (SNB-78 CNS) | GI50 (HCC-2998 colon) | GI50 (OVCAR-5 ovarian) | GI50 (SF-295 CNS) | GI50 (HT29 colon) | GI50 (UACC-62 melanoma) | GI50 (HOP-92 NSCLC) | GI50 (CCRF-CEM leukemia) |
| --- | --- | --- | --- | --- | --- | --- | --- | --- | --- | --- | --- | --- | --- | --- | --- | --- | --- | --- | --- | --- |
| O=C1N(CN2CCOCC2)CN(CN2CCOCC2)C(=O)N1Cc1ccc(CN2C(=O)N(CN3CCOCC3)CN(CN3CCOCC3)C2=O)cc1 | > 100 µM | > 100 µM | > 100 µM | > 100 µM | > 100 µM | > 100 µM | 85.4 µM | > 100 µM |  |  |  |  |  |  |  |  |  |  |  |  |
| C[n+]1c2ccccc2c(CNC(CS)C(=O)O)c2ccccc21 (centres undefined) | 43.4 µM | > 100 µM | 62.4 µM | > 100 µM | 63.4 µM | > 100 µM | 29.6 µM | 52 µM | > 100 µM | > 100 µM | 57.3 µM | 82 µM | > 100 µM |  |  |  |  |  |  |  |
| Cc1[nH]n(-c2ccccc2)c(=O)c1C(N(CCc1ccccc1)C1=NCC(C)S1)(C(F)(F)F)C(F)(F)F (centres undefined) | 52.5 µM | 34 µM | 68.7 µM | 88 µM | 84.2 µM | > 100 µM | 24 µM | 58.5 µM |  |  |  |  |  |  |  |  |  |  |  |  |
| Oc1ccc(-c2nc3cc(F)ccc3s2)cc1 | > 100 µM | 28.3 µM | > 100 µM | 58.4 µM | 48.6 µM | 56.7 µM | 36.4 µM | 47.1 µM |  |  |  |  |  |  |  |  |  |  |  |  |
| COC(=O)/C=C1\CCCN1CCc1cc2c(cc1CC#N)OCO2 | > 100 µM | 93.7 µM | > 100 µM | > 100 µM | > 100 µM | > 100 µM | > 100 µM | > 100 µM |  |  |  |  |  |  |  |  |  |  |  |  |
| CCOP(=O)(OCC)C(Nc1cccc(F)c1)c1ccc(N(C)C)cc1 (centres undefined) | > 100 µM | > 100 µM | > 100 µM | > 100 µM | > 100 µM | > 100 µM | > 100 µM | > 100 µM |  |  |  |  |  |  |  |  |  |  |  |  |
| CC1C(=O)C(C)C(c2ccco2)N(N=O)C1c1ccco1 (centres undefined) | > 100 µM | > 100 µM | > 100 µM | > 100 µM | > 100 µM | > 100 µM | > 100 µM | > 100 µM | > 100 µM | > 100 µM | > 100 µM | > 100 µM | > 100 µM |  |  |  |  |  |  |  |
| CN(C)c1ccc(/C=c2/c3ccccc3n3c2cc(NC(=O)NCCC[N+](C)(C)C)[n+]3C)cc1 | > 100 µM |  | 2.04 µM | > 100 µM | > 100 µM | > 100 µM | > 100 µM | > 100 µM |  |  |  |  |  |  |  |  |  |  |  |  |
| N=c1oc2ccc(Cl)cc2cc1C(N)=O | > 100 µM | 47.4 µM | > 100 µM | > 100 µM |  | > 100 µM | 41.3 µM | > 100 µM |  |  |  |  |  |  |  |  |  |  |  |  |
| O=C(CSc1nc2ccc(I)cc2c(=O)n1Cc1ccccc1)NN1C(=O)c2ccccc2C1=O | 33.5 µM | > 100 µM |  | 86.7 µM | 29.4 µM | > 100 µM | 70.7 µM | 35.9 µM |  |  |  |  |  |  |  |  |  |  |  |  |
| COc1cc([N+](=O)[O-])ccc1N1C(=O)C2c3[nH]c4ccccc4c3C3CCC(C(C)(C)C)CC3C2C1=O (centres undefined) | > 100 µM | > 100 µM | > 100 µM | > 100 µM |  | > 100 µM | > 100 µM | > 100 µM |  |  |  |  |  |  |  |  |  |  |  |  |
| CSc1ccc(/C=C2\N=C(c3ccccc3)N(/N=C3\C(=O)Nc4ccccc43)C2=O)cc1 | > 100 µM | > 100 µM | > 100 µM | > 100 µM | > 100 µM | > 100 µM | > 100 µM | > 100 µM |  |  |  |  |  |  |  |  |  |  |  |  |
| Nc1nnc2oc3ccc4ccccc4c3cc1-2 | 67.9 µM | 77.4 µM | > 100 µM | > 100 µM | > 100 µM | > 100 µM | > 100 µM | > 100 µM |  |  |  |  |  |  |  |  |  |  |  |  |
| CCc1ccc2c(c1)C(=O)c1c-2n(CCCN)c(=O)c2cc([N+](=O)[O-])ccc12 |  | 1.12 µM |  | 3.59 µM | 2.47 µM | 2.07 µM | 2.83 µM | 4.06 µM |  |  |  |  |  | 0.376 µM | 2.07 µM | 1.07 µM | 0.452 µM | 1.48 µM | 2.34 µM |  |
| N#C/C(C(=O)Nc1ccc(Cl)cc1)=C(/N)N1CCOCC1 |  | > 100 µM | > 100 µM | > 100 µM | > 100 µM | > 100 µM | > 100 µM | > 100 µM |  |  |  |  |  |  |  |  |  |  |  |  |
| COC(=O)NC1C(C)OC(OC2C/C=C(/C)C3C=CC4C(OC5CC(OC6CC(OC7CC(O)C(O)C(C)O7)C(OC7CC(O)C(OC)C(C)O7)C(C)O6)C(O)C(C)O5)C(C)CC(C)C4C3(C)/C(O)=C3\C(=O)OC4(CC(C)C(CO)=CC4/C=C\2C)C3=O)CC1(C)[N+](=O)[O-] (centres undefined) | 11.4 µM | 18.9 µM | 15.9 µM | 42.1 µM | 53.2 µM | 20.5 µM | 17.8 µM | 32.5 µM |  |  |  |  |  |  |  |  |  |  |  |  |
| CC1(O)COCCCCOc2c(CN)cccc2NC(=O)c2nc(cnc2N)-c2ccc(cc2)S(=O)(=O)C(C)(C)C1 (centres undefined) |  | 2.87 µM | 1.25 µM | 3.56 µM | 2.84 µM | 2.47 µM | 3.36 µM | 2.74 µM |  |  |  |  |  | 1.48 µM | 2.04 µM | 1.43 µM | 0.408 µM | 1.86 µM | 1.31 µM | < 0.01 µM |
| c1c2c(cc3c1OCO3)-c1cc3ccc4c(c3c[n+]1CC2)OCO4 | > 4.93 µM | > 12.5 µM | > 12.5 µM | > 12.5 µM | 3.52 µM | > 12.5 µM | > 12.5 µM | > 12.5 µM |  |  |  |  |  |  |  |  |  |  |  |  |
| COC(=O)c1ccccc1C1=C([N+](=O)[O-])C(c2cccc(Br)c2)C(C#N)=C(N)O1 (centres undefined) | 70.6 µM | > 100 µM | 61.8 µM | > 100 µM | > 100 µM | > 100 µM | 42.7 µM | 62.1 µM |  |  |  |  |  |  |  |  |  |  |  |  |
| COc1ccc(/C=C2\N=C(c3ccccc3)OC2=O)cc1OC(C)=O | > 100 µM | > 100 µM | 74.4 µM | > 100 µM |  | > 100 µM | > 100 µM | > 100 µM |  |  |  |  |  |  |  |  |  |  |  |  |
